For assay [1], the target named is T1, ICAM-1 binding to immobilized Mac-1 (Homo sapiens, UniProt P05107+P11215).
T1 construct: made in house; host or cells: transfected 293 cells (Mac-1)
The assay can be described thus: Mac-1/ICAM-1 screening assay (solid-phase ELISA). As to conditions: read-out: Mac-1/ICAM-1 Protein-Protein Assay IC50. An outline of the steps: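 Competitive solid-phase ELISA: membrane Mac-1 from transfected 293 cells coated at 3 μg/mL in 20 mM Hepes pH 7.2/0.14 M NaCl/1 mM MnCl2; compounds (0.12 nM-20 μM, 1:4 series) plus 5dICAM-Ig (40 μg/mL, added) 2 h at 37° C. Bound ICAM-Ig detected with HRP anti-human IgG Fc, TMB, A450; IC50 reported.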
(In an ELISA, binding on a coated surface is turned into a signal by an enzyme label.)

Assay [2] concerns T lymphocyte proliferation (C57BI/6 spleen cells with irradiated BALB/c spleen cells). Kind of assay: Mixed lymphocyte reaction (MLR), one-way. As to conditions: Mus musculus, T-lymphocyte; read-out: MLR IC50. The assay is classed as cell-based, mice. An outline of the steps:
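One-way murine MLR: C57BI/6 responder splenocytes proliferate against irradiated BALB/c stimulators while exposed to serially diluted antagonists in supplemented RPMI1640 for 3 days. Proliferation read as [3H]-thymidine uptake over a final 6 h pulse (0.5 μCi/well), scintillation counted.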

Drawing on US20040006236A1, “Diaminopropionic acid derivatives” (priority 1999, published 2004), this text covers IC50 for one molecule.

T1 sequence (P05107 23-769, other chains not shown): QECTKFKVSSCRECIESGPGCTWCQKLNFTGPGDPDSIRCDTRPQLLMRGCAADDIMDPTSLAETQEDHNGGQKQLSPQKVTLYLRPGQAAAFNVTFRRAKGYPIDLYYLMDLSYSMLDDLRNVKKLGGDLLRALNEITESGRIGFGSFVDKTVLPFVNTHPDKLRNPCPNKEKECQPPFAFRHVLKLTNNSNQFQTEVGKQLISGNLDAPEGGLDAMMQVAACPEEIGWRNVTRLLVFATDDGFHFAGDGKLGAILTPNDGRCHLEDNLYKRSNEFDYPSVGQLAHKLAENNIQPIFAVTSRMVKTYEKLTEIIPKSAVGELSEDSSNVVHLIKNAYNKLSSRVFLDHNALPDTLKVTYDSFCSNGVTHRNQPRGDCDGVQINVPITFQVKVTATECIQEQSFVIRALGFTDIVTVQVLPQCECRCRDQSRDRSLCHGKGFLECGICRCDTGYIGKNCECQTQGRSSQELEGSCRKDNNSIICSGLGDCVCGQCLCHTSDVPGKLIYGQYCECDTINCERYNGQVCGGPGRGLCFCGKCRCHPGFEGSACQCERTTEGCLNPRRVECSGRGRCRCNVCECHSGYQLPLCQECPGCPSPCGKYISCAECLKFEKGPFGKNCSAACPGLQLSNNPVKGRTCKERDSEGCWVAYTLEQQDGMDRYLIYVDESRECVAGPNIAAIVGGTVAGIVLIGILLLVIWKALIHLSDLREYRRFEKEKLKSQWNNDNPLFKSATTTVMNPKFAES

On to `O=C(CC1CCCC1)NC[C@H](NC(=O)c1ccc(C(=O)NCc2cccc(O)c2)cc1Cl)C(=O)O` [Example 77], for which the IC50 in assay [1] is 0.025 µM; in assay [2], 0.7 µM.
